These results are taken from patent US10336691B2, “Pesticidally active oxime and hydrazone derivatives” (Syngenta Participations AG, priority 2015, dated 2019).

Bounds are passed on as bounds.

Assay type in all cases: in vivo
The test system of one experiment is Plutella xylostella. Kind of experiment: Plutella xylostella (diamond back moth) artificial diet test, L2 larvae. As to conditions: 120 h, application rate of 200 ppm, 5 days after infestation, in comparison to untreated samples, read-out: effect in at least one of the two categories (mortality or growth inhibition). The procedure:
Plutella xylostella (Diamond Back Moth)
24-well microtiter plates with artificial diet were treated with aqueous test solutions prepared from 10,000 ppm DMSO stock solutions by pipetting. After drying, the plates were infested with L2 larvae (10 to 15 per well). The samples were assessed for mortality and growth inhibition in comparison to untreated samples 5 days after infestation.

The test system of another experiment is Spodoptera littoralis. Kind of experiment: Spodoptera littoralis (Egyptian cotton leaf worm) cotton leaf disc spray test, L1 larvae. As to conditions: foliar, 72 h, application rate of 200 ppm, 3 days after infestation, in comparison to untreated samples, read-out: control (at least one of mortality, anti-feedant effect, and growth inhibition). The procedure: Spodoptera littoralis (Egyptian Cotton Leaf Worm)
Cotton leaf discs were placed on agar in 24-well microtiter plates and sprayed with aqueous test solutions prepared from 10,000 ppm DMSO stock solutions. After drying, the leaf discs were infested with five L1 larvae. The samples were assessed for mortality, anti-feedant effect, and growth inhibition in comparison to untreated samples 3 days after infestation. Control of Spodoptera littoralis by a test sample is when at least one of mortality, anti-feedant effect, and growth inhibition is higher than the untreated sample.

A further experiment has as its system Diabrotica balteata. Kind of experiment: Diabrotica balteata (corn root worm) maize sprout spray test, L2 larvae. As to conditions: 96 h, read-out: effect in at least one of the two categories (mortality or growth inhibition); for percent effect (mortality or growth inhibition) at 200 ppm: application rate of 200 ppm, 4 days after infestation, in comparison to untreated samples. The procedure: Diabrotica balteata (Corn Root Worm)
Maize sprouts, placed on an agar layer in 24-well microtiter plates were treated with aqueous test solutions prepared from 10,000 ppm DMSO stock solutions by spraying. After drying, the plates were infested with L2 larvae (6 to 10 per well). The samples were assessed for mortality and growth inhibition in comparison to untreated samples 4 days after infestation.

One may read the mortality as the percentage killed. As for `C/C(=N\Nc1ccc(/C=N/NC(=O)Nc2c(C)cccc2C)cc1)c1ccc(C(F)(F)F)cc1` [Compound 21, 1-(2,6-dimethylphenyl)-3-[(E)-[4-[(2E)-2-[1-[4-(trifluoromethyl)phenyl]ethylidene] hydrazino]phenyl]methyleneamino] urea], the percent effect (mortality or growth inhibition) at 200 ppm in the experiment with Plutella xylostella and with Diabrotica balteata was no less than 80% each time. In addition, in the experiment on Spodoptera littoralis, the mortality at 200 ppm was no less than 80%.
Regarding `C/C(=N\Oc1ccc(/C=N/NC(=S)Nc2ccccc2C(F)(F)F)cc1)c1ccc(OC(F)(F)F)cc1` [Compound 31, 1-[[4-[1-[4-(trifluoromethoxy)phenyl]ethylidene-amino]oxyphenyl]methylene-amino]-3-[2-(trifluoromethyl)phenyl]thiourea], the percent effect (mortality or growth inhibition) at 200 ppm in the experiment with Diabrotica balteata is no less than 80%.
With `C/C(=N\Nc1ccc(/C=N/NC(=S)Nc2c(C)cccc2C)cc1)c1ccccc1OC(F)(F)F` [Compound 18, 1-(2,6-dimethylphenyl)-3-[[4-[2-[1-[2-(trifluoromethoxy)phenyl]ethylidene] hydrazino]phenyl]methylene-amino]thiourea], the percent effect (mortality or growth inhibition) at 200 ppm in the experiment on Plutella xylostella is no less than 80%.
Turning to `C/C(=N\Nc1ccc(/C=N/NC(=O)Nc2c(C)cccc2C)cc1)c1cccc(OC(F)(F)F)c1` [Compound 15, 1-(2,6-dimethylphenyl)-3-[[4-[2-[1-[3-(trifluoromethoxy)phenyl]ethylidene]hydrazino]phenyl]methylene-amino]urea], the percent effect (mortality or growth inhibition) at 200 ppm in the experiment on Plutella xylostella is no less than 80%.
Take `C/C(=N\Oc1ccc(/C=N/NC(=O)Nc2c(C)cccc2C)cc1)c1ccc(OC(F)(F)F)cc1` [Compound 7, 1-(2,6-dimethylphenyl)-3-[[4-[1-[4-(trifluoromethoxy)phenyl]ethylidene-amino]oxyphenyl]methylene-amino]urea]: the percent effect (mortality or growth inhibition) at 200 ppm in the experiment with Plutella xylostella and with Diabrotica balteata was no less than 80% in each case. In addition, the mortality at 200 ppm in the experiment with Spodoptera littoralis is no less than 80%.
Turning to `CC(C)c1ccccc1NC(=O)N/N=C/c1ccc(O/N=C2\CCc3cc(OC(F)(F)F)ccc32)cc1` [Compound 4, 1-(2-isopropylphenyl)-3-[[4-[[5-(trifluoromethoxy)indan-1-ylidene]amino]oxyphenyl]methylene-amino]urea], the percent effect (mortality or growth inhibition) at 200 ppm with Plutella xylostella and in the experiment with Diabrotica balteata was no less than 80% throughout. In the experiment with Spodoptera littoralis, the mortality at 200 ppm was no less than 80%.
In the case of `C/C(=N\Nc1ccc(/C=N/NC(=S)Nc2ccccc2C(C)C)cc1)c1cccc(OC(F)(F)F)c1` [Compound 14, 1-(2-isopropylphenyl)-3-[[4-[2-[1-[3-(trifluoromethoxy)phenyl]ethylidene] hydrazino]phenyl]methyleneamino] thiourea], the percent effect (mortality or growth inhibition) at 200 ppm with Plutella xylostella and with Diabrotica balteata was no less than 80% throughout.
As for `C/C(=N\Nc1ccc(/C=N/NC(=S)Nc2c(C)cccc2C)cc1)c1cccc(OC(F)(F)F)c1` [Compound 16, 1-(2,6-dimethylphenyl)-3-[[4-[2-[1-[3-(trifluoromethoxy)phenyl]ethylidene] hydrazino]phenyl]methylene-amino]thiourea], the percent effect (mortality or growth inhibition) at 200 ppm in the experiment on Plutella xylostella and in the experiment on Diabrotica balteata was no less than 80% each time.
Take `C/C(=N\Nc1ccc(/C=N/OC(=O)Nc2c(C)cccc2C)cc1)c1ccc(C(F)(F)F)cc1` [Compound 12, [[4-[2-[1-[4-(trifluoromethyl)phenyl]ethylidene] hydrazino]phenyl]methyleneamino] N-(2,6-dimethylphenyl)carbamate]: the percent control (mortality or growth inhibition) at 200 ppm in the experiment on Diabrotica balteata was no less than 80%.
For `CC/C(=N\Nc1ccc(/C=N/NC(=S)Nc2c(C)cccc2C)cc1)c1ccc(C(F)(F)F)cc1` [Compound 28, 1-(2,6-dimethylphenyl)-3-[(E)-[4-[(2E)-2-[1-[4-(trifluoromethyl)phenyl]propylidene] hydrazino]phenyl]methyleneamino] thiourea], the percent effect (mortality or growth inhibition) at 200 ppm in the experiment with Plutella xylostella and in the experiment on Diabrotica balteata was no less than 80% in each case. Also, the mortality at 200 ppm with Spodoptera littoralis is no less than 80%.
Turning to `C/C(=N\Nc1ccc(/C=N/NC(=O)Nc2ccccc2C(C)C)cc1)c1ccc(C(F)(F)F)cc1` [Compound 19, 1-(2-isopropylphenyl)-3-[(E)-[4-[(2E)-2-[1-[4-(trifluoromethyl)phenyl]ethylidene] hydrazino]phenyl]methyleneamino] urea], the percent effect (mortality or growth inhibition) at 200 ppm in the experiment with Plutella xylostella and in the experiment with Diabrotica balteata was no less than 80% each time.
For `Cc1cccc(C)c1NC(=S)N/N=C/c1ccc(N/N=C2\CCc3cc(OC(F)(F)F)ccc32)cc1` [Compound 11, 1-(2,6-dimethylphenyl)-3-[[4-[2-[5-(trifluoromethoxy)indan-1-ylidene]hydrazino]phenyl]methylene-amino]thiourea], the percent effect (mortality or growth inhibition) at 200 ppm in the experiment with Plutella xylostella and in the experiment on Diabrotica balteata was no less than 80% throughout. Also, the mortality at 200 ppm with Spodoptera littoralis is no less than 80%.
On to `CC/C(=N\Nc1ccc(/C=N/NC(=O)Nc2ccccc2C(C)C)cc1)c1ccc(C(F)(F)F)cc1` [Compound 25, 1-(2-isopropylphenyl)-3-[(E)-[4-[(2E)-2-[1-[4-(trifluoromethyl)phenyl]propylidene] hydrazino]phenyl]methyleneamino] urea], for which the percent effect (mortality or growth inhibition) at 200 ppm in the experiment on Plutella xylostella and in the experiment with Diabrotica balteata was no less than 80% each time.
In the case of `C/C(=N\Nc1ccc(/C=N/NC(=S)Nc2c(C)cccc2C)cc1)c1ccc(OC(F)(F)F)cc1` [Compound 3, 1-(2,6-dimethylphenyl)-3-[[4-[2-[1-[4-(trifluoromethoxy)phenyl]ethylidene] hydrazino]phenyl]methyleneamino] thiourea], the percent effect (mortality or growth inhibition) at 200 ppm with Plutella xylostella and in the experiment with Diabrotica balteata was no less than 80% each time. Moreover, the mortality at 200 ppm in the experiment with Spodoptera littoralis is no less than 80%.
For `C/C(=N\Nc1ccc(/C=N/NC(=S)Nc2ccccc2C(C)C)cc1)c1ccccc1OC(F)(F)F` [Compound 23, 1-(2-isopropylphenyl)-3-[(E)-[4-[(2E)-2-[1-[2-(trifluoromethoxy)phenyl]ethylidene] hydrazino]phenyl]methylene-amino]thiourea], the percent effect (mortality or growth inhibition) at 200 ppm in the experiment on Plutella xylostella was no less than 80%.
For the molecule `CC/C(=N\Nc1ccc(/C=N/NC(=O)Nc2c(C)cccc2C)cc1)c1ccc(C(F)(F)F)cc1` [Compound 27, 1-(2,6-dimethylphenyl)-3-[(E)-[4-[(2E)-2-[1-[4-(trifluoromethyl)phenyl]propylidene] hydrazino]phenyl]methyleneamino] urea], the percent effect (mortality or growth inhibition) at 200 ppm in the experiment with Plutella xylostella and in the experiment on Diabrotica balteata was no less than 80% in each case. The mortality at 200 ppm in the experiment on Spodoptera littoralis is no less than 80%.
`C/C(=N\Oc1ccc(/C=N/NC(=O)Nc2ccccc2C(C)C)cc1)c1ccc(OC(F)(F)F)cc1` [Compound 6, 1-(2-isopropylphenyl)-3-[[4-[1-[4-(trifluoromethoxy)phenyl]ethylidene-amino]oxyphenyl]methylene-amino]urea]: the percent effect (mortality or growth inhibition) at 200 ppm with Plutella xylostella and in the experiment with Diabrotica balteata was no less than 80% each time.
Take `Cc1cccc(C)c1NC(=S)N/N=C/c1ccc(O/N=C2\CCc3cc(OC(F)(F)F)ccc32)cc1` [Compound 9, 1-(2,6-dimethylphenyl)-3-[[4-[[5-(trifluoromethoxy)indan-1-ylidene]amino]oxyphenyl]methylene-amino]thiourea]: the percent effect (mortality or growth inhibition) at 200 ppm in the experiment with Plutella xylostella and in the experiment with Diabrotica balteata was no less than 80% each time. The mortality at 200 ppm with Spodoptera littoralis is no less than 80%.
In the case of `C/C(=N\Oc1ccc(/C=N/NC(=S)Nc2ccccc2C(C)C)cc1)c1ccc(OC(F)(F)F)cc1` [Compound 8, 1-(2-isopropylphenyl)-3-[[4-[1-[4-(trifluoromethoxy)phenyl]ethylidene-amino]oxyphenyl]methylene-amino]thiourea], the percent effect (mortality or growth inhibition) at 200 ppm in the experiment with Plutella xylostella and in the experiment with Diabrotica balteata was no less than 80% throughout.
Take `C/C(=N\Nc1ccc(/C=N/NC(=O)Nc2c(C)cccc2C)cc1)c1ccc(OC(F)F)cc1` [Compound 29, 1-[[4-[2-[1-[4-(difluoromethoxy)phenyl]ethylidene] hydrazino]phenyl]methyleneamino]-3-(2,6-dimethylphenyl)urea]: in the experiment on Plutella xylostella, the percent effect (mortality or growth inhibition) at 200 ppm was no less than 80%. Also, the mortality at 200 ppm in the experiment on Spodoptera littoralis was no less than 80%.
For `FC(F)(F)Oc1ccc2c(c1)CC/C2=N\Oc1ccc(/C=N/NC(=S)Nc2ccccc2C(F)(F)F)cc1` [Compound 30, 1-[[4-[[5-(trifluoromethoxy)indan-1-ylidene]amino]oxyphenyl]methylene-amino]-3-[2-(trifluoromethyl)phenyl]thiourea], the percent effect (mortality or growth inhibition) at 200 ppm in the experiment on Diabrotica balteata is no less than 80%.
For `C/C(=N\Nc1ccc(/C=N/NC(=O)Nc2ccccc2C(C)C)cc1)c1cccc(OC(F)(F)F)c1` [Compound 13, 1-(2-isopropylphenyl)-3-[[4-[2-[1-[3-(trifluoromethoxy)phenyl]ethylidene] hydrazino]phenyl]methyleneamino] urea], the percent effect (mortality or growth inhibition) at 200 ppm in the experiment on Diabrotica balteata was no less than 80%.
